This is an account of results in US20250353853A1, “FLAVIVIRUS INHIBITORS” (IRBM S.P.A., priority 2022, published 2025).

The test relates to ZIKV replicon in Vero cells. The test can be described thus: ZIKV Replication Inhibition Assay (replicon, NanoLuc). The conditions noted are these: Zika virus, Vero, 72 h, read-out: Zika Replicon EC50. A general note: A replicon is a self-replicating genome or part of one, used to study replication in cells.

Molecules are shown by their SMILES. Counter-ions that a name gives are not always drawn.

Regarding `Cc1cnncc1-c1ccc(C[n+]2cc([N-]C(=O)Nc3cccc(C(F)(F)F)c3)on2)cc1` [Example 93, (3-(4-(5-methylpyridazin-4-yl)benzyl)-1,2,3-oxadiazol-3-ium-5-yl)((3-(trifluoromethyl)phenyl)carbamoyl)amide], the EC50 (in general, the concentration that produces a half-maximal response) was less than 0.1 µM. Under `O=C([N-]c1c[n+]([C@H](CO)Cc2ccccc2)no1)Nc1cccc(C(F)(F)F)c1` [Example 32, (S)-(3-(1-hydroxy-3-phenylpropan-2-yl)-1,2,3-oxadiazol-3-ium-5-yl)((3-(trifluoromethyl)phenyl)carbamoyl)amide] stands 1 to 20 µM; under `Cc1ncccc1-c1ccc(C[n+]2cc([N-]C(=O)Nc3cccc(C(F)(F)F)c3)on2)cc1` [Example 92, (3-(4-(2-methylpyridin-3-yl)benzyl)-1,2,3-oxadiazol-3-ium-5-yl)((3-(trifluoromethyl)phenyl)carbamoyl)amide], less than 0.1 µM; under `Cc1ncncc1-c1csc(C[n+]2cc([N-]C(=O)Nc3cccc(C(F)(F)F)c3)on2)c1` [Example 110, (3-((4-(4-methylpyrimidin-5-yl)thiophen-2-yl)methyl)-1,2,3-oxadiazol-3-ium-5-yl)((3-(trifluoromethyl)phenyl)carbamoyl)amide], 0.1 to 1 µM. Consider `O=C([N-]c1c[n+](C2Cc3ccccc3C2)no1)Nc1cccc(C(F)(F)F)c1` [Example 10, (3-(2,3-dihydro-1H-inden-2-yl)-1,2,3-oxadiazol-3-ium-5-yl)((3-(trifluoromethyl)phenyl)carbamoyl)amide], for which the EC50 lay in the range of 1 to 20 µM. Under `Cc1ncncc1-c1ccc([C@@H](C)[n+]2cc([N-]C(=O)Nc3cccc(C(F)(F)F)c3)on2)cc1` [Example 82, (R)-(3-(1-(4-(4-methylpyrimidin-5-yl)phenyl)ethyl)-1,2,3-oxadiazol-3-ium-5-yl)((3-(trifluoromethyl)phenyl)carbamoyl)amide] stands 0.1 to 1 µM; under `O=C([N-]c1c[n+](Cc2ccc(-c3ccccc3)cc2)no1)Nc1cccc(C(F)(F)F)c1` [Example 17, (3-([1,1′-Biphenyl]-4-ylmethyl)-1,2,3-oxadiazol-3-ium-5-yl)((3-(trifluoromethyl)phenyl)carbamoyl)amide], 0.1 to 1 µM; under `Cc1ncn(C)c1-c1ccc(C[n+]2cc([N-]C(=O)Nc3cccc(C(F)(F)F)c3)on2)nc1` [Example 118, (3-((5-(1,4-dimethyl-1H-imidazol-5-yl)pyridin-2-yl)methyl)-1,2,3-oxadiazol-3-ium-5-yl)((3-(trifluoromethyl)phenyl)carbamoyl)amide], 0.1 to 1 µM. With `CC(Cc1ccccc1)[n+]1cc([N-]C(=O)Nc2ccc3ncccc3c2)on1` (centres unmarked) [Example 12, (3-(1-phenylpropan-2-yl)-1,2,3-oxadiazol-3-ium-5-yl)(quinolin-6-ylcarbamoyl) amide], the EC50 was more than 20 µM. Under `O=C([N-]c1c[n+](Cc2ccc(-c3cnn(C4CCNCC4)c3)cn2)no1)Nc1cccc(C(F)(F)F)c1` [Example 120, (3-((5-(1-(piperidin-4-yl)-1H-pyrazol-4-yl)pyridin-2-yl)methyl)-1,2,3-oxadiazol-3-ium-5-yl)((3-(trifluoromethyl)phenyl)carbamoyl)amide] stands 1 to 20 µM.

As for `Cc1noc(C)c1-c1cccc(C[n+]2cc([N-]C(=O)Nc3cccc(C(F)(F)F)c3)on2)c1` [Example 94, (3-(3-(3,5-dimethylisoxazol-4-yl)benzyl)-1,2,3-oxadiazol-3-ium-5-yl)((3-(trifluoromethyl)phenyl)carbamoyl)amide], the EC50 lay in the range of 0.1 to 1 µM.

For `O=C([N-]c1c[n+](Cc2cccnc2)no1)Nc1cccc(C(F)(F)F)c1` [Example 29, (3-(pyridin-3-ylmethyl)-1,2,3-oxadiazol-3-ium-5-yl)((3-(trifluoromethyl)phenyl)carbamoyl)amide], the EC50 was 1 to 20 µM. To `O=C([N-]c1c[n+](Cc2ccc(-c3cncnc3C(F)(F)F)cc2)no1)Nc1cccc(C(F)(F)F)c1` [Example 80, ((3-(trifluoromethyl)phenyl)carbamoyl)(3-(4-(4-(trifluoromethyl)pyrimidin-5-yl)benzyl)-1,2,3-oxadiazol-3-ium-5-yl)amide] belongs less than 0.1 µM. With `O=C([N-]c1c[n+](Cc2ccc(-c3cnn4c3CNCC4)cn2)no1)Nc1cccc(C(F)(F)F)c1` [Example 124, (3-((5-(4,5,6,7-tetrahydropyrazolo[1,5-a]pyrazin-3-yl)pyridin-2-yl)methyl)-1,2,3-oxadiazol-3-ium-5-yl)((3-(trifluoromethyl)phenyl)carbamoyl)amide], the EC50 was in the range of 0.1 to 1 µM.

With `CC(C[n+]1cc([N-]C(=O)Nc2cccc(C(F)(F)F)c2)on1)c1ccccc1` (centres unmarked) [Example 28, (3-(2-phenylpropyl)-1,2,3-oxadiazol-3-ium-5-yl)((3-(trifluoromethyl)phenyl)carbamoyl)amide], the EC50 is 0.1 to 1 µM. For `O=C([N-]c1c[n+](Cc2ccc(B(O)O)cn2)no1)Nc1cccc(C(F)(F)F)c1` [Example 122, (3-((5-boronopyridin-2-yl)methyl)-1,2,3-oxadiazol-3-ium-5-yl)((3-(trifluoromethyl)phenyl)carbamoyl)amide], the EC50 is more than 20 µM. As to `CC(Cc1ccc(Cl)c(Cl)c1)[n+]1cc([N-]C(=O)Nc2cccc(C(F)(F)F)c2)on1` (centres unmarked) [Example 9, (3-(1-(3,4-dichlorophenyl)propan-2-yl)-1,2,3-oxadiazol-3-ium-5-yl)((3-(trifluoromethyl)phenyl)carbamoyl)amide], the EC50 lay within 1 to 20 µM. Consider `O=C([N-]c1c[n+](Cc2ccc(-c3ccsc3)cc2)no1)Nc1cccc(C(F)(F)F)c1` [Example 20, (3-(4-(thiophen-3-yl)benzyl)-1,2,3-oxadiazol-3-ium-5-yl)((3(trifluoromethyl)phenyl)carbamoyl)amide], for which the EC50 lay within 0.1 to 1 µM. Under `O=C([N-]c1c[n+](C2(c3ccccc3)CC2)no1)Nc1cccc(C(F)(F)F)c1` [Example 25, (3-(1-phenylcyclopropyl)-1,2,3-oxadiazol-3-ium-5-yl)((3-(trifluoromethyl)phenyl)carbamoyl)amide] stands 1 to 20 µM. Under `Cc1noc(C)c1-c1ccc([C@@H](CN)[n+]2cc([N-]C(=O)Nc3cccc(C(F)(F)F)c3)on2)cc1` [Example 116, (S)-(3-(2-amino-1-(4-(3,5-dimethylisoxazol-4-yl)phenyl)ethyl)-1,2,3-oxadiazol-3-ium-5-yl)((3-(trifluoromethyl)phenyl)carbamoyl)amide formate] stands 0.1 to 1 µM; under `Cc1ncncc1-c1cccc(C[n+]2cc([N-]C(=O)Nc3cccc(C(F)(F)F)c3)on2)c1` [Example 83, (3-(3-(4-methylpyrimidin-5-yl)benzyl)-1,2,3-oxadiazol-3-ium-5-yl)((3-(trifluoromethyl)phenyl)carbamoyl)amide], 0.1 to 1 µM; under `NC[C@@H](Cc1ccc(-c2ccccc2)cc1)[n+]1cc([N-]C(=O)Nc2cccc(C(F)(F)F)c2)on1` [Example 66, (R)-(3-(1-([1,1′-biphenyl]-4-yl)-3-aminopropan-2-yl)-1,2,3-oxadiazol-3-ium-5-yl)((3-(trifluoromethyl)phenyl)carbamoyl)amide], 1 to 20 µM. Take `COc1ncncc1-c1cccc(C[n+]2cc([N-]C(=O)Nc3cccc(C(F)(F)F)c3)on2)c1` [Example 84, (3-(3-(4-methoxypyrimidin-5-yl)benzyl)-1,2,3-oxadiazol-3-ium-5-yl)((3-(trifluoromethyl)phenyl)carbamoyl)amide]: the EC50 lay within 0.1 to 1 µM. For the molecule `Cc1c(-c2ccc(C[n+]3cc([N-]C(=O)Nc4cccc(C(F)(F)F)c4)on3)cc2)cnn1C` [Example 95, (3-(4-(1,5-dimethyl-1H-pyrazol-4-yl)benzyl)-1,2,3-oxadiazol-3-ium-5-yl)((3-(trifluoromethyl)phenyl)carbamoyl)amide], the EC50 was in the range of 0.1 to 1 µM.

Regarding `NC[C@H](Cc1ccccc1)[n+]1cc([N-]C(=O)Nc2cccc(C(F)(F)F)c2)on1` [Example 54, (S)-(3-(1-amino-3-phenylpropan-2-yl)-1,2,3-oxadiazol-3-ium-5-yl)((3-(trifluoromethyl)phenyl)carbamoyl)amide formate], the EC50 was more than 20 µM.

On to `O=C([N-]c1c[n+](Cc2cccc(-c3ccccc3)c2)no1)Nc1cccc(C(F)(F)F)c1` [Example 27, (3-([1,1′-biphenyl]-3-ylmethyl)-1,2,3-oxadiazol-3-ium-5-yl)((3-(trifluoromethyl)phenyl)carbamoyl)amide], for which the EC50 lay in the range of 1 to 20 µM. With `COc1ncc(-c2ccc(C[n+]3cc([N-]C(=O)Nc4cccc(C#N)c4)on3)cc2)c(C)n1` [Example 114, ((3-cyanophenyl)carbamoyl)(3-(4-(2-methoxy-4-methylpyrimidin-5-yl)benzyl)-1,2,3-oxadiazol-3-ium-5-yl)amide], the EC50 is 1 to 20 µM. Regarding `O=C([N-]c1c[n+](Cc2ccc(-c3cccc4c3CNC4)cn2)no1)Nc1cccc(C(F)(F)F)c1` [Example 119, (3-((5-(isoindolin-4-yl)pyridin-2-yl)methyl)-1,2,3-oxadiazol-3-ium-5-yl)((3-(trifluoromethyl)phenyl)carbamoyl)amide], the EC50 lay in the range of 0.1 to 1 µM.

On to `COc1ncc(-c2ccc(C[n+]3cc([N-]C(=O)Nc4ccccc4)on3)cc2)c(C)n1` [Example 115, (3-(4-(2-methoxy-4-methylpyrimidin-5-yl)benzyl)-1,2,3-oxadiazol-3-ium-5-yl)(phenylcarbamoyl)amide], for which the EC50 lay in the range of 1 to 20 µM. `C=C(c1ccccc1)[n+]1cc([N-]C(=O)Nc2cccc(C(F)(F)F)c2)on1` [Example 35, (3-(1-Phenylvinyl)-1,2,3-oxadiazol-3-ium-5-yl)((3-(trifluoromethyl)phenyl)carbamoyl)amide]: the EC50 lay within 1 to 20 µM. For `O=C([N-]c1c[n+](CCc2ccccc2)no1)Nc1cccc(C(F)(F)F)c1` [Example 5, (3-phenethyl-1,2,3-oxadiazol-3-ium-5-yl)((3-(trifluoromethyl)phenyl)carbamoyl)amide], the EC50 lay within 0.1 to 1 µM. As to `O=C([N-]c1c[n+](Cc2ccc(-c3ccc(CN4CCOCC4)cc3)cc2)no1)Nc1cccc(C(F)(F)F)c1` [Example 56, (3-((4′-(morpholinomethyl)-[1,1′-biphenyl]-4-yl)methyl)-1,2,3-oxadiazol-3-ium-5-yl)((3-(trifluoromethyl)phenyl)carbamoyl)amide], the EC50 is 1 to 20 µM.
